Measurements: patent US8058475B2, “Substituted cyclohexylmethyl compounds” (Gruenenthal GmbH, priority 2005, dated 2011)
Read-outs that look alike come from different tables or passages of the source.

Target: human μ-opiate receptor (Homo sapiens, UniProt P35372)
Test: Affinity for the human μ-opiate receptor ([3H]-naloxone displacement, SPA, CHO-K1 membrane preparation)
Format: binding
Conditions: for inhibition at 1 µM: read-out: μ-Opioid receptor, % inhibition [1 μM]; for Ki: read-out: μ-Opioid receptor, Ki
[1] = 1 μM test substance, inhibition of specific [3H]-naloxone binding

Chain of human μ-opiate receptor (P35372 whole entry): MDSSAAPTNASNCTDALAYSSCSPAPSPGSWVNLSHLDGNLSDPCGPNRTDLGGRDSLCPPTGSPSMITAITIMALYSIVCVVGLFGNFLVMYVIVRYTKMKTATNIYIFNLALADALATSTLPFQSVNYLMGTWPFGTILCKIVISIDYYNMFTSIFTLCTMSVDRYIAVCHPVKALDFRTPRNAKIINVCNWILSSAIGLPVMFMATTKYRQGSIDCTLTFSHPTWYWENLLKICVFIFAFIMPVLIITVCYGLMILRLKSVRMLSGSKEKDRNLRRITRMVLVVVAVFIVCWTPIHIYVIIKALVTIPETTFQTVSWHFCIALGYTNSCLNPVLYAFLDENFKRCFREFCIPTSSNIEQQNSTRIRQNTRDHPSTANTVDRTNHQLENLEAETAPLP

Work on `Cc1ccc(Oc2ncccc2C(=O)NCC2CCC(C(c3cccs3)N(C)C)CC2)cc1` (single isomer, unassigned) [compound 389, N-[4-(dimethylamino-thiophen-2-yl-methyl)-cyclohexylmethyl]-2-p-tolyloxy-nicotinamide] yielded an inhibition at 1 µM of 81% and a Ki of 58 nM.
With `CN(C)C(c1ccccc1)C1CCC(CCNC(=O)c2cccc(Cl)c2)CC1` (single isomer, unassigned) [compound 397, 3-chloro-N-{2-[4-(dimethylamino-phenyl-methyl)-cyclohexyl]-ethyl}-benzamide] the inhibition at 1 µM was 97% and the Ki was 7.2 nM.
With `CN(C)C(c1ccccc1)C1CCC(CCNC(=O)c2cccc(Cl)c2)CC1` (single isomer, unassigned) [compound 398, 3-chloro-N-{2-[4-(dimethylamino-phenyl-methyl)-cyclohexyl]-ethyl}-benzamide] the “μ-Opioid receptor, % inhibition [1 μM]” value (1 µM) was 101% and the Ki was 7.4 nM.
For `CN(C)C(c1cccc(F)c1)C1CCC(CCNC(=O)c2cccc(Cl)c2)CC1` (single isomer, unassigned) [compound 400, 3-chloro-N-(2-{4-[dimethylamino-(3-fluoro-phenyl)-methyl]-cyclohexyl}-ethyl)-benzamide], the inhibition at 1 µM was 94% and the Ki was 23 nM.
For `CN(C)C(c1cccc(F)c1)C1CCC(CCNC(=O)c2cccc(Cl)c2)CC1` (single isomer, unassigned) [compound 401, 3-chloro-N-(2-{4-[dimethylamino-(3-fluoro-phenyl)-methyl]-cyclohexyl}-ethyl)-benzamide], the “μ-Opioid receptor, % inhibition [1 μM]” value (1 µM) was 97% and the Ki was 11 nM.
`Cc1ccccc1C(=O)NCCC1CCC(C(c2ccccc2)N(C)C)CC1` (single isomer, unassigned) [compound 417, N-{2-[4-(dimethylamino-phenyl-methyl)-cyclohexyl]-ethyl}-2-methyl-benzamide] was tested, and the inhibition at 1 µM was 91% and the Ki was 31 nM.
With `Cc1ccccc1C(=O)NCCC1CCC(C(c2ccccc2)N(C)C)CC1` (single isomer, unassigned) [compound 418, N-{2-[4-(dimethylamino-phenyl-methyl)-cyclohexyl]-ethyl}-2-methyl-benzamide] the “μ-Opioid receptor, % inhibition [1 μM]” value (1 µM) was 92% and the Ki was 43 nM.
Molecule `CN(C)C(c1ccc(F)cc1)C1CCC(CCNC(=O)c2cccc(Cl)c2)CC1` (single isomer, unassigned) [compound 422, 3-chloro-N-(2-{4-[dimethylamino-(4-fluoro-phenyl)-methyl]-cyclohexyl}-ethyl)-benzamide] has an inhibition at 1 µM of 83% and a Ki of 35 nM.
In the case of `CN(C)C(c1ccc(F)cc1)C1CCC(CCNC(=O)c2cccc(Cl)c2)CC1` (single isomer, unassigned) [compound 423, 3-chloro-N-(2-{4-[dimethylamino-(4-fluoro-phenyl)-methyl]-cyclohexyl}-ethyl)-benzamide], the “μ-Opioid receptor, % inhibition [1 μM]” value is reported as 83% and the Ki is reported as 15 nM.
`CN(C)C(c1cccc(F)c1)C1CCC(CCNC(=O)c2cc(F)c(Cl)cc2Cl)CC1` (single isomer, unassigned) [compound 438, 2,4-dichloro-N-(2-{4-[dimethylamino-(3-fluoro-phenyl)-methyl]-cyclohexyl}-ethyl)-5-fluoro-benzamide] was tested, and the inhibition at 1 µM was 87% and the Ki was 100 nM.
`CN(C)C(c1cccc(F)c1)C1CCC(CCNC(=O)c2cc(F)c(Cl)cc2Cl)CC1` (single isomer, unassigned) [compound 439, 2,4-dichloro-N-(2-{4-[dimethylamino-(3-fluoro-phenyl)-methyl]-cyclohexyl}-ethyl)-5-fluoro-benzamide] was tested, and the “μ-Opioid receptor, % inhibition [1 μM]” value (1 µM) was 85% and the Ki was 52 nM.
With `CN(C)C(c1ccccc1)C1CCC(CCNC(=O)c2cccnc2Sc2ccc(Cl)cc2)CC1` (single isomer, unassigned) [compound 470, 2-(4-chloro-phenylsulfanyl)-N-{2-[4-(dimethylamino-phenyl-methyl)-cyclohexyl]-ethyl}-nicotinamide] the inhibition at 1 µM was 91% and the Ki was 71 nM.
For `CN(C)C(c1ccccc1)C1CCC(CCNC(=O)c2cccnc2Sc2ccc(Cl)cc2)CC1` (single isomer, unassigned) [compound 471, 2-(4-chloro-phenylsulfanyl)-N-{2-[4-(dimethylamino-phenyl-methyl)-cyclohexyl]-ethyl}-nicotinamide], the “μ-Opioid receptor, % inhibition [1 μM]” value (1 µM) was 82% and the Ki was 87 nM.
In the case of `Cc1cc(C2(O)CCC(C(c3ccccc3)N(C)C)CC2)ccc1F` (centres unmarked) [compound 151, 4-(dimethylamino-phenyl-methyl)-1-(4-fluoro-3-methyl-phenyl)-cyclohexanol], the inhibition at 1 µM [1] is reported as 71%.
Molecule `CN(C)C(c1cccc(F)c1)C1CCC(O)(Cc2ccccc2)CC1` (centres unmarked) [compound 152, 1-benzyl-4-[dimethylamino-(3-fluoro-phenyl)-methyl]-cyclohexanol] has an inhibition at 1 µM [1] of 63%.
`CN(C)C(c1cccc(F)c1)C1CCC(O)(CCc2ccccc2)CC1` (centres unmarked) [compound 153, 4-[dimethylamino-(3-fluoro-phenyl)-methyl]-1-phenethyl-cyclohexanol] was tested, and the inhibition at 1 µM [1] was 87%.
`CCCCCC1(O)CCC(C(c2cccc(F)c2)N(C)C)CC1` (centres unmarked) [compound 154, 4-[dimethylamino-(3-fluoro-phenyl)-methyl]-1-pentyl-cyclohexanol] was tested, and the inhibition at 1 µM [1] was 50%.
In the case of `CN(C)C(c1cccc(F)c1)C1CCC(O)(c2cc(Cl)cc(Cl)c2)CC1` (centres unmarked) [compound 155, 1-(3,5-dichloro-phenyl)-4-[dimethylamino-(3-fluoro-phenyl)-methyl]-cyclohexanol], the inhibition at 1 µM [1] is reported as 77%.
`COc1cccc(CC2(O)CCC(C(c3cccc(F)c3)N(C)C)CC2)c1` (centres unmarked) [compound 156, 4-[dimethylamino-(3-fluoro-phenyl)-methyl]-1-(3-methoxy-benzyl)-cyclohexanol] showed an inhibition at 1 µM [1] of 73%.
Work on `CN(C)C(c1cccc(F)c1)C1CCC(O)(c2ccc(Cl)c(C(F)(F)F)c2)CC1` (centres unmarked) [compound 157, 1-(4-chloro-3-trifluoromethyl-phenyl)-4-[dimethylamino-(3-fluoro-phenyl)-methyl]-cyclohexanol] yielded an inhibition at 1 µM [1] of 72%.
Molecule `CN(C)C(c1ccc(Cl)cc1)C1CCC(O)(c2ccccc2)CC1` (centres unmarked) [compound 158, 4-[(4-chloro-phenyl)-dimethylamino-methyl]-1-phenyl-cyclohexanol] has an inhibition at 1 µM [1] of 58%.
With `CN(C)C(c1ccc(Cl)cc1)C1CCC(O)(Cc2ccccc2)CC1` (centres unmarked) [compound 159, 1-benzyl-4-[(4-chloro-phenyl)-dimethylamino-methyl]-cyclohexanol] the inhibition at 1 µM [1] was 83%.
Work on `Cc1cc(C2(O)CCC(C(c3ccc(Cl)cc3)N(C)C)CC2)ccc1F` (centres unmarked) [compound 160, 4-[(4-chloro-phenyl)-dimethylamino-methyl]-1-(4-fluoro-3-methyl-phenyl)-cyclohexanol] yielded an inhibition at 1 µM [1] of 67%.
For `Cc1ccccc1C1(O)CCC(C(c2ccc(Cl)cc2)N(C)C)CC1` (centres unmarked) [compound 161, 4-[(4-chloro-phenyl)-dimethylamino-methyl]-1-o-tolyl-cyclohexanol], the inhibition at 1 µM [1] was 60%.
Molecule `CN(C)C(c1ccc(Cl)cc1)C1CCC(O)(c2ccc(F)cc2)CC1` (centres unmarked) [compound 162, 4-[(4-chloro-phenyl)-dimethylamino-methyl]-1-(4-fluoro-phenyl)-cyclohexanol] has an inhibition at 1 µM [1] of 59%.
`CN(C)C(c1ccc(Cl)cc1)C1CCC(O)(CCc2ccccc2)CC1` (centres unmarked) [compound 163, 4-[(4-chloro-phenyl)-dimethylamino-methyl]-1-phenethyl-cyclohexanol] gave an inhibition at 1 µM [1] of 81%.
`COc1cccc(C2(O)CCC(C(c3ccc(Cl)cc3)N(C)C)CC2)c1` (centres unmarked) [compound 164, 4-[(4-chloro-phenyl)-dimethylamino-methyl]-1-(3-methoxy-phenyl)-cyclohexanol] was tested, and the inhibition at 1 µM [1] was 58%.
For `Cc1ccc(C2(O)CCC(C(c3ccc(Cl)cc3)N(C)C)CC2)cc1` (centres unmarked) [compound 165, 4-[(4-chloro-phenyl)-dimethylamino-methyl]-1-p-tolyl-cyclohexanol], the inhibition at 1 µM [1] was 52%.
With `CN(C)C(c1ccc(Cl)cc1)C1CCC(O)(c2cc(F)cc(F)c2)CC1` (centres unmarked) [compound 166, 4-[(4-chloro-phenyl)-dimethylamino-methyl]-1-(3,5-difluoro-phenyl)-cyclohexanol] the inhibition at 1 µM [1] was 62%.
Molecule `CCCCC1(O)CCC(C(c2ccc(Cl)cc2)N(C)C)CC1` (centres unmarked) [compound 167, 1-butyl-4-[(4-chloro-phenyl)-dimethylamino-methyl]-cyclohexanol] has an inhibition at 1 µM [1] of 58%.
`CCCCCCC1(O)CCC(C(c2ccc(Cl)cc2)N(C)C)CC1` (centres unmarked) [compound 168, 4-[(4-chloro-phenyl)-dimethylamino-methyl]-1-hexyl-cyclohexanol] was tested, and the inhibition at 1 µM [1] was 58%.
In the case of `CCCCCC1(O)CCC(C(c2ccc(Cl)cc2)N(C)C)CC1` (centres unmarked) [compound 169, 4-[(4-chloro-phenyl)-dimethylamino-methyl]-1-pentyl-cyclohexanol], the inhibition at 1 µM [1] is reported as 71%.
For `CCCCCC1(O)CCC(C(c2ccc(Cl)cc2)N(C)C)CC1` (centres unmarked) [compound 170, 4-[(4-chloro-phenyl)-dimethylamino-methyl]-1-pentyl-cyclohexanol], the “μ-Opioid receptor, % inhibition [1 μM]” value (1 μM test substance, inhibition of specific [3H]-naloxone binding, 1 µM) was 63%.
In the case of `CN(C)C(c1ccc(Cl)cc1)C1CCC(O)(c2cccc(F)c2)CC1` (centres unmarked) [compound 171, 4-[(4-chloro-phenyl)-dimethylamino-methyl]-1-(3-fluoro-phenyl)-cyclohexanol], the inhibition at 1 µM [1] is reported as 67%.
Molecule `CN(C)C(c1ccc(Cl)cc1)C1CCC(O)(Cc2ccc(F)cc2)CC1` (centres unmarked) [compound 172, 4-[(4-chloro-phenyl)-dimethylamino-methyl]-1-(4-fluoro-benzyl)-cyclohexanol] has an inhibition at 1 µM [1] of 77%.
`COc1cccc(CC2(O)CCC(C(c3ccc(Cl)cc3)N(C)C)CC2)c1` (centres unmarked) [compound 173, 4-[(4-chloro-phenyl)-dimethylamino-methyl]-1-(3-methoxy-benzyl)-cyclohexanol] was tested, and the inhibition at 1 µM [1] was 84%.
In the case of `COc1ccc(CN(C(C)=O)C2CCC(C(c3ccccc3)N(C)C)CC2)cc1` (centres unmarked) [compound 176, N-(4-((dimethylamino)(phenyl)methyl)cyclohexyl)-N-(4-methoxybenzyl)-acetamide], the inhibition at 1 µM is reported as 86% and the Ki is reported as 19 nM.
For `CC(=O)N(C(C)Cc1c[nH]c2ccccc12)C1CCC(C(c2ccccc2)N(C)C)CC1` (centres unmarked) [compound 177], the “μ-Opioid receptor, % inhibition [1 μM]” value (1 µM) was 86% and the Ki was 7.2 nM.
